Measured values as given in patent US20220000777A1, “LIPOSOMAL ENHANCED INTRA-PERITONEAL CHEMOTHERAPY” (TESORX PHARMA, LLC, priority 2018, published 2022).
Several values for one entry are separate records, joined by “and”; a condition that tells them apart may be missing. Identical values can stand only once. Counter-ions that a name gives are not always drawn. Like-named read-outs stand apart in the source and are kept apart here.

What was measured:
[1] = cited from earlier work
ovarian cancer [2] = conditions: intraperitoneal cisplatin regimen, versus 41 months, p=0.02; cited from earlier work
[3] = system: OVCAR3-RFP human ovarian cancer cells; experiment: sulforhodamine B (SRB) assay, dosage curves and IC50; format: cell-based; conditions: 72 h treatment; for IC50: Homo sapiens, 72 h
Procedure: Example 1. Determination of paclitaxel […] in TSD-001-treated human ovarian cancer cells. A sulforhodamine B (SRB) assay-based approach was employed to determine the inhibitory concentration (IC)50 of paclitaxel against OVCAR3-RFP human ovarian cancer cells (Anticancer Inc.) treated with the TSD-001 paclitaxel liposomal formulation (Paclitaxel:DMPC:DMPG=1:1.43:0.567). For use in the assay, lyophilized TSD-001 was reconstituted in sterile injectable-grade water to a concentration of 6 mg/mL and subsequently serially diluted in RPMI cell culture medium (RPMI-1640 with L-glutamine, Corning). Three separate dosage curve assays were performed. In two of the assays, the serial dilutions of TSD-001 ranged from 0.05 μg/mL to 0.391 ng/mL, and in the third assay, the serial dilutions of TSD-001 ranged from 0.0128 μg/mL to 2.147 ng/mL.
Serial dilutions of the Abraxane® paclitaxel formulation (nanoparticle albuminbound paclitaxel) and doxorubicin HCl were also prepared to perform comparative dosage curve assays in OVCAR3-RFP cells. For these assays, lyophilized Abraxane® was dissolved in RPMI medium to a concentration of 1 mg/mL, and doxorubicin HCl was dissolved in a small amount of DMSO, and the diluted in RPMI medium to a concentration of 1 mg/mL. Three separate dosage curve assays were performed for Abraxane®. In one assay, the serial dilutions of Abraxane® ranged from 0.04 μg/mL to 0.078 ng/mL. In the second assay, the serial dilutions of Abraxane® ranged from 0.04 μg/mL to 8.39 ng/mL and in the third assay, the serial dilutions of Abraxane® ranged from 0.032 μg/mL to 8.39 ng/mL. […]
OVCAR3-RFP cells were seeded onto 96-well clear flat-bottom polystyrene tissue culture plates (Corning) at a density of approximately 5×10^3 cells/well in 200 μl of RPMI. […] Protein-bound SRB was detected by adding 200 μl 10 mM Tris base solution (pH 10.5) to each well, followed by placing the plate(s) on a byratory shaker for 5 minutes to allow the Tris solution to solubilize SRB. The plates were read using a microplate reader at an absorbance of 510 nm. […]

ovarian cancer [4] = conditions: cited from earlier work

Structure (SMILES): N.N.[Cl][Pt][Cl] [cisplatin, Cis-diamminedichloroplatinum(10)]
- peritoneal cavity exposure to greater concentrations than possible with systemic therapy delivery ([1]; in vivo, ip): 10-20 fold
- overall survival median (ovarian cancer [2]): 49 months

Structure (SMILES): COc1cccc2c1C(=O)c1c(O)c3c(c(O)c1C2=O)C[C@@](O)(C(=O)CO)C[C@@H]3O[C@H]1C[C@H](N)[C@H](O)[C@H](C)O1 [doxorubicin HCl]
- IC50 ([3]; Table 1, combined data, read-out: Mean IC50 (μg/mL) against OVCAR3-RFP cells (n ≥ 5)): 0.191 ± 0.0835 µg/mL
- IC50 ([3]; single dosage curve assay, n=3 or 4 wells/concentration, read-out: IC50 at 72 h.): 0.17 µg/mL
- IC50 at 72 h. ([3]; single dosage curve assay, n=3 or 4 wells/concentration, HCl): 0.1322 mg/L and 0.166 mg/L

Structure (SMILES): CC(=O)O[C@H]1C(=O)[C@@]2(C)[C@H]([C@H](OC(=O)c3ccccc3)[C@]3(O)C[C@H](OC(=O)[C@H](O)[C@@H](NC(=O)c4ccccc4)c4ccccc4)C(C)=C1C3(C)C)[C@]1(OC(C)=O)CO[C@@H]1C[C@@H]2O [paclitaxel]
- surgical complete response (ovarian cancer [4]; intraperitoneal 60 mg/m^2 per week for 16 weeks, microscopic residual patients): 61%
- complete response (ovarian cancer [4]; intraperitoneal 60 mg/m^2 per week for 16 weeks, women with macroscopic residual cancer): one of the 31
- dose-limiting toxicity (ovarian cancer [4]; intraperitoneal use, Phase 1 study): abdominal pain
- peritoneal cavity exposure to greater concentrations than possible with systemic therapy delivery ([1]; intraperitoneal versus systemic delivery): greater than 1000 fold
